SMILES strings stand for the structures. The source made the active and inactive calls. No cut-off for these calls is given here.

This is an account of results in ChEMBL document CHEMBL5131471, “Design, synthesis and mechanism studies of novel dual PARP1/BRD4 inhibitors against pancreatic cancer” (Eur J Med Chem, 2022).

For data set [1], the system named is SW1990. As to the kind of experiment: Induction of apoptosis in human SW1990 cells assessed as early apoptotic cells at 4 uM measured after 4 days by Annexin V-FITC and propidium iodide staining based flow cytometry (reference value: 1.62%). The data set is classed as functional. The note with it: time 4 day.
For data set [2], the system named is SW1990. The data set is described as follows: Induction of apoptosis in human SW1990 cells assessed as necrotic cells at 1 uM measured after 4 days in presence of 3 uM Olaparib by Annexin V-FITC and propidium iodide staining based flow cytometry (reference value: 2.45%). The data set is classed as functional. The note with it: time 4 day. For orientation: A flow cytometer gives signals particle by particle.

Data set [3] relates to SW1990. The data set is described as follows: Induction of apoptosis in human SW1990 cells assessed as early apoptotic cells at 1 uM measured after 4 days in presence of 3 uM Olaparib by Annexin V-FITC and propidium iodide staining based flow cytometry (reference value: 1.62%). The note with it: time 4 day. The data set is classed as functional.
In data set [4] the test system is SW1990. As to the kind of experiment: Effect on E2F2 gene expression in human SW1990 cells at 4 uM by Q-PCR analysis. The data set is classed as functional, cell-based.
In data set [5] the test system is SW1990. The data set is described as follows: Effect on HEXIM1 gene expression in human SW1990 cells at 4 uM by Q-PCR analysis. The data set is classed as functional, cell-based.
The subject of data set [6] is SW1990. As to the kind of experiment: Effect on BRCA2 gene expression in human SW1990 cells at 4 uM by Q-PCR analysis. The data set is classed as functional, cell-based.
The test system of data set [7] is SW1990. The data set is described as follows: Effect on FOXO1 gene expression in human SW1990 cells at 4 uM by Q-PCR analysis. The data set is classed as functional, cell-based.
In data set [8] the test system is SW1990. As to the kind of experiment: Effect on ALDH1A1 gene expression in human SW1990 cells at 4 uM by Q-PCR analysis. The data set is classed as functional, cell-based.
The subject of data set [9] is SW1990. As to the kind of experiment: Effect on c-Myc gene expression in human SW1990 cells at 1 uM in presence of Olaparib by Q-PCR analysis. The data set is classed as functional, cell-based.
In data set [10] the test system is SW1990. As to the kind of experiment: Effect on CDC25B gene expression in human SW1990 cells at 1 uM in presence of Olaparib by Q-PCR analysis. The data set is classed as functional, cell-based.
Data set [11] concerns SW1990. The data set is described as follows: Effect on CCND1 gene expression in human SW1990 cells at 1 uM in presence of Olaparib by Q-PCR analysis. The data set is classed as functional, cell-based.
The subject of data set [12] is SW1990. The data set is described as follows: Effect on BRCA1 gene expression in human SW1990 cells at 1 uM in presence of Olaparib by Q-PCR analysis. The data set is classed as functional, cell-based.
Data set [13] has as its system SW1990. As to the kind of experiment: Effect on FOXO1 gene expression in human SW1990 cells at 1 uM in presence of Olaparib by Q-PCR analysis. The data set is classed as functional, cell-based.
Data set [14] relates to SW1990. The data set is described as follows: Effect on ALDH1A1 gene expression in human SW1990 cells at 1 uM in presence of Olaparib by Q-PCR analysis. The data set is classed as functional, cell-based.
For data set [15], the system named is Mus musculus. As to the kind of experiment: Inhibition of homologous recombinant repair in nude mouse xenografted with human SW1990 cells assessed as reversal of olaparib-induced BRCA1 expression at 30 mg/kg, ip measured after 4 days by Western blot analysis. The data set is classed as functional, organism-based. The note with it: time 4.0 day. (Xenograft models place foreign cells or tissue in a host animal.)

For data set [16], the system named is SW1990. The data set is described as follows: Antitumor activity against human SW1990 cells xenografted in nude mouse assessed as reduction in tumor size at 30 mg/kg, ip administered for 28 days and measured every 3 days by vernier caliper method. The note with it: time 28.0 day. The data set is classed as functional, organism-based.
Data set [17] has as its system Mus musculus. As to the kind of experiment: Inhibition of PARP1 expression in nude mouse xenografted with human […] cells at 30 mg/kg, ip administered for 28 days by Western blot analysis. The data set is classed as functional, organism-based. The note with it: time 28.0 day.
Data set [18] relates to Mus musculus. The data set is described as follows: Inhibition of PARP1 expression in nude mouse xenografted with human […] cells at 30 mg/kg, ip administered for 28 days by Q-PCR analysis. The data set is classed as functional, organism-based. The note with it: time 28.0 day.
Data set [19] concerns SW1990. The data set is described as follows: Downregulation of PARP1 expression in human SW1990 cells at 2 uM measured after 4 days by Western blot analysis. The note with it: time 4.0 day. The data set is classed as functional, cell-based.
For data set [20], the system named is SW1990. The data set is described as follows: Induction of apoptosis in human SW1990 cells assessed as early apoptotic cells at 2 uM measured after 4 days by Annexin V-FITC and propidium iodide staining based flow cytometry (reference value: 1.62%). The data set is classed as functional. The note with it: time 4 day.
Data set [21] relates to SW1990. The data set is described as follows: Induction of cell cycle arrest in human SW1990 cells assessed as accumulation of cells at G0/G1 phase at 2 uM incubated for 4 days by propidium iodide staining based flow cytometry (reference value: 64.79%). The data set is classed as functional. The note with it: time 4 day.
The test system of data set [22] is Mus musculus. As to the kind of experiment: Inhibition of CCND1 expression in nude mouse xenografted with human SW1990 cells at 30 mg/kg, ip measured after 4 days by Q-PCR analysis. The data set is classed as functional, organism-based. The note with it: time 4.0 day.
The subject of data set [23] is Mus musculus. As to the kind of experiment: Inhibition of E2F2 expression in nude mouse xenografted with human SW1990 cells at 30 mg/kg, ip measured after 4 days by Western blot analysis. The data set is classed as functional, organism-based. The note with it: time 4.0 day.
Data set [24] deals with Mus musculus. As to the kind of experiment: Inhibition of CDK6 expression in nude mouse xenografted with human SW1990 cells at 30 mg/kg, ip measured after 4 days by Western blot analysis. The data set is classed as functional, organism-based. The note with it: time 4.0 day.
For data set [25], the system named is SW1990. The data set is described as follows: Effect on CDK1 gene expression in human SW1990 cells at 1 to 2 uM by Q-PCR analysis. The data set is classed as functional, cell-based. The note with it: dose 1-2 µM.
The test system of data set [26] is SW1990. The data set is described as follows: Effect on E2F2 gene expression in human SW1990 cells at 1 to 2 uM by Q-PCR analysis. The data set is classed as functional, cell-based. The note with it: dose 1-2 µM.
Data set [27] concerns SW1990. The data set is described as follows: Inhibition of E2F2 protein expression in human SW1990 cells at 1 to 2 uM measured after 4 days by Western blot analysis. The data set is classed as functional, cell-based. The note with it: dose 1-2 µM, time 4.0 day. On the technique in general: In western blotting, separated proteins are transferred to a membrane and probed.
For data set [28], the system named is SW1990. The data set is described as follows: Inhibition of CDC25B protein expression in human SW1990 cells at 1 to 2 uM measured after 4 days by Western blot analysis. The note with it: dose 1-2 µM, time 4.0 day. The data set is classed as functional, cell-based.
Data set [29] deals with Mus musculus. The data set is described as follows: Induction of DNA damage in nude mouse xenografted with human SW1990 cells assessed as increase in gammaH2AX expression at 30 mg/kg, ip incubated for 4 days by DAPI staining based laser confocal microscopic analysis. The data set is classed as functional, organism-based. The note with it: time 4.0 day.
Data set [30] can be described thus: Toxicity in nude mouse xenografted with human SW1990 cells assessed as liver damage at 45 mg/kg, ip administered for 28 days by H and E staining based fluorescence microscopic analysis. The note with it: in vivo, 672 h, time 28 day. The data set is classed as organism-based.
Data set [31] can be described thus: Toxicity in nude mouse xenografted with human SW1990 cells assessed as spleen damage at 45 mg/kg, ip administered for 28 days by H and E staining based fluorescence microscopic analysis. The data set is classed as organism-based. The note with it: in vivo, 672 h, time 28 day.
A short description of data set [32]: Toxicity in nude mouse xenografted with human SW1990 cells assessed as kidney damage at 45 mg/kg, ip administered for 28 days by H and E staining based fluorescence microscopic analysis. The data set is classed as organism-based. The note with it: in vivo, 672 h, time 28 day.
Data set [33] concerns SW1990. The data set is described as follows: Upregulation of CDC25B expression in human SW1990 cells at 6 uM measured after 4 days by Western blot analysis. The data set is classed as functional, cell-based. The note with it: time 4.0 day.
For data set [34], the system named is Mus musculus. The data set is described as follows: Upregulation of CDK6 expression in nude mouse xenografted with human SW1990 cells at 45 mg/kg, ip measured after 4 days by Q-PCR analysis. The data set is classed as functional, organism-based. The note with it: time 4.0 day.
For data set [35], the system named is Mus musculus. As to the kind of experiment: Upregulation of CDC25B expression in nude mouse xenografted with human SW1990 cells at 45 mg/kg, ip measured after 4 days by Q-PCR analysis. The data set is classed as functional, organism-based. The note with it: time 4.0 day.
The subject of data set [36] is SW1990. As to the kind of experiment: Induction of DNA damage in human SW1990 cells assessed as increase in gammaH2AX expression at 6 uM incubated for 4 days by DAPI staining based laser confocal microscopic analysis. The note with it: time 4.0 day. The data set is classed as functional, cell-based.
For data set [37], the system named is SW1990. As to the kind of experiment: Effect on CDK1 gene expression in human SW1990 cells at 6 uM by Q-PCR analysis. The data set is classed as functional, cell-based.
The subject of data set [38] is SW1990. The data set is described as follows: Effect on TOPBP1 gene expression in human SW1990 cells at 6 uM by Q-PCR analysis. The data set is classed as functional, cell-based.
The test system of data set [39] is SW1990. As to the kind of experiment: Upregulation of ALDH1A1 expression in human SW1990 cells at 6 uM measured after 4 days by Western blot analysis. The note with it: time 4.0 day. The data set is classed as functional, cell-based.
Data set [40] concerns SW1990. As to the kind of experiment: Induction of BRCA1 accumulation in nucleus of human SW1990 cells at 6 uM measured after 4 days by Western blot analysis. The data set is classed as functional, cell-based. The note with it: time 4.0 day.

With `Cc1sc2c(c1C)C(c1ccc(Cl)cc1)=N[C@@H](CC(=O)OC(C)(C)C)c1nnc(C)n1-2`, the values for the Activity in the data set on SW1990 [1], with SW1990 [2] and in the data set on SW1990 [3] were 1.73%, 5.76% and 3.07%, respectively. The outcome in the data set with SW1990 [4], in the data set on SW1990 [5], in the data set with SW1990 [6], with SW1990 [7], in the data set on SW1990 [8] and in the data set with SW1990 [9] was Active. For the same compound, the outcome in the data set on SW1990 [10], with SW1990 [11], in the data set on SW1990 [12], with SW1990 [13] and in the data set on SW1990 [14] was Active.

`Cc1noc(C)c1-c1ccc2c(c1)C(c1ccccc1)N(Cc1nc3c(C(N)=O)cccc3[nH]1)C(=O)N2C` (stereo not given): the inhibition result in the data set on Mus musculus [15], in the data set with Mus musculus [17], in the data set with Mus musculus [18], in the data set with Mus musculus [22], in the data set with Mus musculus [23] and with Mus musculus [24] was “Active” in each case. The inhibition result in the data set with SW1990 [27] and in the data set on SW1990 [28] was “Active” each time. In addition, the result with SW1990 [16], in the data set with SW1990 [19], in the data set on SW1990 [25], with SW1990 [26] and with Mus musculus [29] was Active. Further, the Activity in the data set on SW1990 [20] was 1.06%; with SW1990 [21], 78.17%.

On to `O=C(c1cc(Cc2n[nH]c(=O)c3ccccc23)ccc1F)N1CCN(C(=O)C2CC2)CC1` [OLAPARIB], for which the Activity result in data set [30], in [31] and in [32] was “Non-Toxic” in each case. Further, the outcome with SW1990 [33], in the data set on Mus musculus [34], with Mus musculus [35], in the data set on SW1990 [36], with SW1990 [37] and in the data set with SW1990 [38] was Active. Further, the result with SW1990 [39] and in the data set with SW1990 [40] was Active.
